Reference: patent US9657047B2, “Crystallization of epirubicin hydrochloride” (MEDAC GESELLSCHAFT FÜR KLINISCHE SPEZIALPRÄPARATE MBH, priority 2011, dated 2017)

Assay: test of thermal stability (storage at 40° C.)
Assay type: physicochemical
Conditions: two weeks and three weeks; for decomposition on storage (thermal stability): crystals stored at 40° C. for one week
Procedure: The produced crystalline epirubicin hydrochloride was subjected to a test of thermal stability. For this purpose, the produced crystals were stored at a temperature of 40° C. for a time period of one week, two weeks, and three weeks. […] Instead, the crystals remained in unchanged form.
The epirubicin hydrochloride produced was subjected to a test of thermal stability. For this purpose, the epirubicin hydrochloride was stored at a temperature of 40° C. for a time period of one week, two weeks, and three weeks. Within this time frame, a thermal decomposition of epirubicin hydrochloride amplified with increasing storage period by two percent respectively was observed.

Compound	thermal decomposition amplified with increasing storage period (stored at 40° C. for one week, increase per storage period)	decomposition on storage (thermal stability)
COc1cccc2c1C(=O)c1c(O)c3c(c(O)c1C2=O)C[C@@](O)(C(=O)CO)C[C@@H]3O[C@H]1C[C@H](N)[C@@H](O)[C@H](C)O1.Cl [Comparison Example 1, epirubicin hydrochloride]	two	
COc1cccc2c1C(=O)c1c(O)c3c(c(O)c1C2=O)C[C@@](O)(C(=O)CO)C[C@@H]3O[C@H]1C[C@H](N)[C@@H](O)[C@H](C)O1.Cl [Example 1, epirubicin hydrochloride]		no decomposition
COc1cccc2c1C(=O)c1c(O)c3c(c(O)c1C2=O)C[C@@](O)(C(=O)CO)C[C@@H]3O[C@H]1C[C@H](N)[C@@H](O)[C@H](C)O1.Cl [Example 2, epirubicin hydrochloride]		no decomposition
